Data as given in ChEMBL document CHEMBL2429768, “Eco-friendly synthesis and antimicrobial activities of substituted-5-(1H-indol-3-yl)methylene)-2,2-dimethyl-1,3-dioxane-4,6-dione derivatives” (2013).
≈ marks a conversion by molar mass, not a printed value.

How the values were obtained:
Format in all cases: functional
Aspergillus flavus [1] = experiment: Antifungal activity against Aspergillus flavus after 72 hrs by agar well diffusion method
Bacillus subtilis [2] = experiment: Antibacterial activity against Bacillus subtilis at 100 ug/ml after 24 hrs by agar well diffusion method; conditions: read-out: DIZ
Rhizoctonia solani [3] = experiment: Antifungal activity against Rhizoctonia solani at 50 ug/ml after 72 hrs by agar well diffusion method; conditions: read-out: DIZ
Aspergillus flavus [4] = experiment: Antifungal activity against Aspergillus flavus at 500 ug/ml after 72 hrs by agar well diffusion method; conditions: read-out: DIZ
Bacillus subtilis [5] = experiment: Antibacterial activity against Bacillus subtilis after 24 hrs by agar well diffusion method
Aspergillus niger [6] = experiment: Antifungal activity against Aspergillus niger at 200 ug/ml after 72 hrs by agar well diffusion method; conditions: read-out: DIZ
Aspergillus niger [7] = experiment: Antifungal activity against Aspergillus niger at 50 ug/ml after 72 hrs by agar well diffusion method; conditions: read-out: DIZ
Bacillus subtilis [8] = experiment: Antibacterial activity against Bacillus subtilis at 200 ug/ml after 24 hrs by agar well diffusion method; conditions: read-out: DIZ
Klebsiella pneumoniae [9] = experiment: Antibacterial activity against Klebsiella pneumoniae at 500 ug/ml after 24 hrs by agar well diffusion method; conditions: read-out: DIZ
Aspergillus flavus [10] = experiment: Antifungal activity against Aspergillus flavus at 50 ug/ml after 72 hrs by agar well diffusion method; conditions: read-out: DIZ
Staphylococcus aureus [11] = experiment: Antibacterial activity against Staphylococcus aureus ATCC 6538 at 50 ug/ml after 24 hrs by agar well diffusion method; conditions: ATCC 6538, 24 h, read-out: DIZ
Aspergillus niger [12] = experiment: Antifungal activity against Aspergillus niger after 72 hrs by agar well diffusion method
Escherichia coli [13] = experiment: Antibacterial activity against Escherichia coli ATCC 8739 at 500 ug/ml after 24 hrs by agar well diffusion method; conditions: ATCC 8739, 24 h, read-out: DIZ
Staphylococcus aureus [14] = experiment: Antibacterial activity against Staphylococcus aureus ATCC 6538 after 24 hrs by agar well diffusion method; conditions: ATCC 6538, 24 h
Fusarium oxysporum [15] = experiment: Antifungal activity against Fusarium oxysporum at 200 ug/ml after 72 hrs by agar well diffusion method; conditions: read-out: DIZ
Aspergillus niger [16] = experiment: Antifungal activity against Aspergillus niger at 500 ug/ml after 72 hrs by agar well diffusion method; conditions: read-out: DIZ
Aspergillus flavus [17] = experiment: Antifungal activity against Aspergillus flavus at 200 ug/ml after 72 hrs by agar well diffusion method; conditions: read-out: DIZ
Escherichia coli [18] = experiment: Antibacterial activity against Escherichia coli ATCC 8739 at 300 ug/ml after 24 hrs by agar well diffusion method; conditions: ATCC 8739, 24 h, read-out: DIZ
Aspergillus niger [19] = experiment: Antifungal activity against Aspergillus niger at 100 ug/ml after 72 hrs by agar well diffusion method; conditions: read-out: DIZ
Bacillus subtilis [20] = experiment: Antibacterial activity against Bacillus subtilis at 500 ug/ml after 24 hrs by agar well diffusion method; conditions: read-out: DIZ
Klebsiella pneumoniae [21] = experiment: Antibacterial activity against Klebsiella pneumoniae at 100 ug/ml after 24 hrs by agar well diffusion method; conditions: read-out: DIZ
Klebsiella pneumoniae [22] = experiment: Antibacterial activity against Klebsiella pneumoniae at 200 ug/ml after 24 hrs by agar well diffusion method; conditions: read-out: DIZ
Staphylococcus aureus [23] = experiment: Antibacterial activity against Staphylococcus aureus ATCC 6538 at 100 ug/ml after 24 hrs by agar well diffusion method; conditions: ATCC 6538, 24 h, read-out: DIZ
Fusarium oxysporum [24] = experiment: Antifungal activity against Fusarium oxysporum at 100 ug/ml after 72 hrs by agar well diffusion method; conditions: read-out: DIZ
Escherichia coli [25] = experiment: Antibacterial activity against Escherichia coli ATCC 8739 at 200 ug/ml after 24 hrs by agar well diffusion method; conditions: ATCC 8739, 24 h, read-out: DIZ
Rhizoctonia solani [26] = experiment: Antifungal activity against Rhizoctonia solani at 500 ug/ml after 72 hrs by agar well diffusion method; conditions: read-out: DIZ
Staphylococcus aureus [27] = experiment: Antibacterial activity against Staphylococcus aureus ATCC 6538 at 300 ug/ml after 24 hrs by agar well diffusion method; conditions: ATCC 6538, 24 h, read-out: DIZ
Rhizoctonia solani [28] = experiment: Antifungal activity against Rhizoctonia solani at 300 ug/ml after 72 hrs by agar well diffusion method; conditions: read-out: DIZ
Rhizoctonia solani [29] = experiment: Antifungal activity against Rhizoctonia solani after 72 hrs by agar well diffusion method
Klebsiella pneumoniae [30] = experiment: Antibacterial activity against Klebsiella pneumoniae at 50 ug/ml after 24 hrs by agar well diffusion method; conditions: read-out: DIZ
Escherichia coli [31] = experiment: Antibacterial activity against Escherichia coli ATCC 8739 at 100 ug/ml after 24 hrs by agar well diffusion method; conditions: ATCC 8739, 24 h, read-out: DIZ
Fusarium oxysporum [32] = experiment: Antifungal activity against Fusarium oxysporum after 72 hrs by agar well diffusion method
Rhizoctonia solani [33] = experiment: Antifungal activity against Rhizoctonia solani at 100 ug/ml after 72 hrs by agar well diffusion method; conditions: read-out: DIZ
Klebsiella pneumoniae [34] = experiment: Antibacterial activity against Klebsiella pneumoniae at 300 ug/ml after 24 hrs by agar well diffusion method; conditions: read-out: DIZ
Staphylococcus aureus [35] = experiment: Antibacterial activity against Staphylococcus aureus ATCC 6538 at 200 ug/ml after 24 hrs by agar well diffusion method; conditions: ATCC 6538, 24 h, read-out: DIZ
Klebsiella pneumoniae [36] = experiment: Antibacterial activity against Klebsiella pneumoniae after 24 hrs by agar well diffusion method
Staphylococcus aureus [37] = experiment: Antibacterial activity against Staphylococcus aureus ATCC 6538 at 500 ug/ml after 24 hrs by agar well diffusion method; conditions: ATCC 6538, 24 h, read-out: DIZ
Fusarium oxysporum [38] = experiment: Antifungal activity against Fusarium oxysporum at 300 ug/ml after 72 hrs by agar well diffusion method; conditions: read-out: DIZ
Aspergillus niger [39] = experiment: Antifungal activity against Aspergillus niger at 300 ug/ml after 72 hrs by agar well diffusion method; conditions: read-out: DIZ
Escherichia coli [40] = experiment: Antibacterial activity against Escherichia coli ATCC 8739 after 24 hrs by agar well diffusion method; conditions: ATCC 8739, 24 h
Fusarium oxysporum [41] = experiment: Antifungal activity against Fusarium oxysporum at 50 ug/ml after 72 hrs by agar well diffusion method; conditions: read-out: DIZ
Escherichia coli [42] = experiment: Antibacterial activity against Escherichia coli ATCC 8739 at 50 ug/ml after 24 hrs by agar well diffusion method; conditions: ATCC 8739, 24 h, read-out: DIZ
Rhizoctonia solani [43] = experiment: Antifungal activity against Rhizoctonia solani at 200 ug/ml after 72 hrs by agar well diffusion method; conditions: read-out: DIZ
Aspergillus flavus [44] = experiment: Antifungal activity against Aspergillus flavus at 300 ug/ml after 72 hrs by agar well diffusion method; conditions: read-out: DIZ
Fusarium oxysporum [45] = experiment: Antifungal activity against Fusarium oxysporum at 500 ug/ml after 72 hrs by agar well diffusion method; conditions: read-out: DIZ
Bacillus subtilis [46] = experiment: Antibacterial activity against Bacillus subtilis at 300 ug/ml after 24 hrs by agar well diffusion method; conditions: read-out: DIZ
Bacillus subtilis [47] = experiment: Antibacterial activity against Bacillus subtilis at 50 ug/ml after 24 hrs by agar well diffusion method; conditions: read-out: DIZ
Aspergillus flavus [48] = experiment: Antifungal activity against Aspergillus flavus at 100 ug/ml after 72 hrs by agar well diffusion method; conditions: read-out: DIZ

Which results are given for CCn1cc(C=C2C(=O)OC(C)(C)OC2=O)c2cc(OC)ccc21?
MIC (Aspergillus flavus [1]): 40 µg/mL (≈ 121 µM); zone of inhibition at 100 µg/mL (Bacillus subtilis [2]): 8 mm; zone of inhibition at 50 µg/mL (Rhizoctonia solani [3]): 7 mm; zone of inhibition at 500 µg/mL (Aspergillus flavus [4]): 23 mm; MIC (Bacillus subtilis [5]): 30 µg/mL (≈ 91.1 µM); zone of inhibition at 200 µg/mL (Aspergillus niger [6]): 14 mm; zone of inhibition at 50 µg/mL (Aspergillus niger [7]): 6 mm; zone of inhibition at 200 µg/mL (Bacillus subtilis [8]): 10 mm; zone of inhibition at 500 µg/mL (Klebsiella pneumoniae [9]): 31 mm; zone of inhibition at 50 µg/mL (Aspergillus flavus [10]): 4 mm; zone of inhibition at 50 µg/mL (Staphylococcus aureus [11]): 4 mm; MIC (Aspergillus niger [12]): 40 µg/mL (≈ 121 µM); zone of inhibition at 500 µg/mL (Escherichia coli [13]): 26 mm; MIC (Staphylococcus aureus [14]): 25 µg/mL (≈ 75.9 µM); zone of inhibition at 200 µg/mL (Fusarium oxysporum [15]): 16 mm; zone of inhibition at 500 µg/mL (Aspergillus niger [16]): 25 mm; zone of inhibition at 200 µg/mL (Aspergillus flavus [17]): 12 mm; zone of inhibition at 300 µg/mL (Escherichia coli [18]): 16 mm; zone of inhibition at 100 µg/mL (Aspergillus niger [19]): 10 mm; zone of inhibition at 500 µg/mL (Bacillus subtilis [20]): 21 mm; zone of inhibition at 100 µg/mL (Klebsiella pneumoniae [21]): 13 mm; zone of inhibition at 200 µg/mL (Klebsiella pneumoniae [22]): 15 mm; zone of inhibition at 100 µg/mL (Staphylococcus aureus [23]): 9 mm; zone of inhibition at 100 µg/mL (Fusarium oxysporum [24]): 12 mm; zone of inhibition at 200 µg/mL (Escherichia coli [25]): 13 mm; zone of inhibition at 500 µg/mL (Rhizoctonia solani [26]): 29 mm; zone of inhibition at 300 µg/mL (Staphylococcus aureus [27]): 14 mm; zone of inhibition at 300 µg/mL (Rhizoctonia solani [28]): 21 mm; MIC (Rhizoctonia solani [29]): 35 µg/mL (≈ 106 µM); zone of inhibition at 50 µg/mL (Klebsiella pneumoniae [30]): 8 mm; zone of inhibition at 100 µg/mL (Escherichia coli [31]): 10 mm; MIC (Fusarium oxysporum [32]): 35 µg/mL (≈ 106 µM); zone of inhibition at 100 µg/mL (Rhizoctonia solani [33]): 12 mm; zone of inhibition at 300 µg/mL (Klebsiella pneumoniae [34]): 20 mm; zone of inhibition at 200 µg/mL (Staphylococcus aureus [35]): 11 mm; MIC (Klebsiella pneumoniae [36]): 15 µg/mL (≈ 45.5 µM); zone of inhibition at 500 µg/mL (Staphylococcus aureus [37]): 22 mm; zone of inhibition at 300 µg/mL (Fusarium oxysporum [38]): 21 mm; zone of inhibition at 300 µg/mL (Aspergillus niger [39]): 18 mm; MIC (Escherichia coli [40]): 15 µg/mL (≈ 45.5 µM); zone of inhibition at 50 µg/mL (Fusarium oxysporum [41]): 7 mm; zone of inhibition at 50 µg/mL (Escherichia coli [42]): 6 mm; zone of inhibition at 200 µg/mL (Rhizoctonia solani [43]): 16 mm; zone of inhibition at 300 µg/mL (Aspergillus flavus [44]): 15 mm; zone of inhibition at 500 µg/mL (Fusarium oxysporum [45]): 29 mm; zone of inhibition at 300 µg/mL (Bacillus subtilis [46]): 13 mm; zone of inhibition at 50 µg/mL (Bacillus subtilis [47]): 4 mm; zone of inhibition at 100 µg/mL (Aspergillus flavus [48]): 9 mm
